Data reported in patent US12150922B1, “Methods of inhibiting cyclooxygenase (COX) using tolterodine” (priority 2023, dated 2024).
Where “and” joins values, the source holds several entries; their conditions need not be identical. Equal entries are not always repeated.

Assays:
COX-1 = COX-1 (UniProt P05979); format: biochemical; conditions: conversion of arachidonic acid to prostaglandin; 10 min preincubation at 37° C.; three separate experiments
Description: (§1) The Schrodinger Maestro molecular modeling suite (Schrodinger LLC, New York, USA) was utilized for all stages of virtual screening modeling. QikProp software tools offer a fast, accurate, and user-friendly approach for predicting molecular characteristics. This software evaluates a given molecule's properties and compares them with those of substances present in 95% of commonly prescribed drugs. A series of graded filters is employed to identify potential interactions within the active site of the receptor and the ligand. This process involves constructing a grid with varying field sets that accurately score the ligand poses while simultaneously depicting the structure and attributes of the receptor. COX-1 and COX-2 inhibitor screening assay kits were obtained from Cayman Chemical (Ann Arbor, MI, USA).
(§2) The inhibitory effects of tolterodine on COX-1 and COX-2 were determined using COX inhibitor screening test kits, testing each compound's capacity to inhibit the conversion of arachidonic acid to prostaglandin. In test tubes, 25 mM Tris-HCl, pH 8.0, containing 5 mM EDTA, phenol, and 1 mM hematin was added. Tolterodine was dissolved in DMSO and added in concentrations ranging from […]. […]
(§3) Three separate experiments were used to calculate the IC50 values. The selectivity index was calculated as follows: Selectivity Index (SI)=IC50 COX-1/IC50 COX-2

COX-2 = target: T1, COX-2 (Homo sapiens, UniProt P35354); assay: biochemical
T1 construct: purchased Cayman Chemical (Ann Arbor, MI, USA)
T1 sequence (P35354 18-604): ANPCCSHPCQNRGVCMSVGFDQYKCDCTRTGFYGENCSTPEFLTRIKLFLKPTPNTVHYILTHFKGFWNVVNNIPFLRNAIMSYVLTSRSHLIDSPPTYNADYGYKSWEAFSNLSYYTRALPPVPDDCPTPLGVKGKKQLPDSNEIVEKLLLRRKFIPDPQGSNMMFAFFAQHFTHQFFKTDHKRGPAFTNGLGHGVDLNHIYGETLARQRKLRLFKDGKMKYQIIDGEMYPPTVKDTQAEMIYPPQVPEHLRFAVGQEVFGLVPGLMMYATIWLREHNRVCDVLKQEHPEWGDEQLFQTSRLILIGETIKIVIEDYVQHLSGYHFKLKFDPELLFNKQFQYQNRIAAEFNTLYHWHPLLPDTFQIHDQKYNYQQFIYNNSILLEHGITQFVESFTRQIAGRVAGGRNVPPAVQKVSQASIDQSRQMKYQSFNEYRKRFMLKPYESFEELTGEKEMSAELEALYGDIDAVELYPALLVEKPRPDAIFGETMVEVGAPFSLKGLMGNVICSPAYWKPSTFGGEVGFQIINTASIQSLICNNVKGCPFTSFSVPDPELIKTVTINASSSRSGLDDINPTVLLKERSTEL
Description: as §1, §2, §3

Sequence of COX-1 (P05979 whole entry): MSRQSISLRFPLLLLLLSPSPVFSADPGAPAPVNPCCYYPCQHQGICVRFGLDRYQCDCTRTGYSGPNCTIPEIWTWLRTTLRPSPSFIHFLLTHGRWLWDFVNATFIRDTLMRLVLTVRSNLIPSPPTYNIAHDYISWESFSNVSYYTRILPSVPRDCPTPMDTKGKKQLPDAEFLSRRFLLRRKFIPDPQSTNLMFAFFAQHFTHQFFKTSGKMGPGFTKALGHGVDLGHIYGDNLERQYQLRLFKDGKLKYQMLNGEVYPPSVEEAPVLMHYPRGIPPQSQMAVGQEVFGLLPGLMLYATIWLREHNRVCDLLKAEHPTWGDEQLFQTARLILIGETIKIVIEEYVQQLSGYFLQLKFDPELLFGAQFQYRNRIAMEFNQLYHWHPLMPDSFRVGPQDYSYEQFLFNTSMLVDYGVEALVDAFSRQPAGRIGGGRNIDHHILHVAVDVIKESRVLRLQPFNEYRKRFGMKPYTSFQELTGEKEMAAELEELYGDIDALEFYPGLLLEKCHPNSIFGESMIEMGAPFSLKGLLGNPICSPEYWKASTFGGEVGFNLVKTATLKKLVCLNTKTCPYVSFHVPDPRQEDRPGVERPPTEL

Cc1ccc(O)c([C@H](CCN(C(C)C)C(C)C)c2ccccc2)c1 [Tolterodine]
IC50 (COX-1): ~4.53 µM and 4.53 µM | SI (Selectivity Index = IC50 COX-1/IC50 COX-2) (COX-2): 14.3 | IC50 (COX-2; conversion of arachidonic acid to prostaglandin, 10 min preincubation at 37° C., three separate experiments): ~0.32 µM and 0.32 µM
